Measured values: patent EP1614683B1, “Indazole compounds and pharmaceutical compositions for inhibiting protein kinases, and methods for their use” (priority 1999, dated 2001)
“And” between values parts separate entries of the source, which are not always exact repeats. Equal entries are not always repeated. Where two headings read alike, the source gives them in different places. Values belong to the compound of their own block, whether it stands above or below them.

Tests used:
[1] = target: T1, unphosphorylated VEGF-R2Δ50 (Homo sapiens, UniProt P35968, DEL940-989/E990V); settings: Table 1; for FLVK ** (% inhibition): compound concentration 50 nM
T1 sequence (P35968 with tags, fused parts or gaps DEL940-989/E990V limits assumed): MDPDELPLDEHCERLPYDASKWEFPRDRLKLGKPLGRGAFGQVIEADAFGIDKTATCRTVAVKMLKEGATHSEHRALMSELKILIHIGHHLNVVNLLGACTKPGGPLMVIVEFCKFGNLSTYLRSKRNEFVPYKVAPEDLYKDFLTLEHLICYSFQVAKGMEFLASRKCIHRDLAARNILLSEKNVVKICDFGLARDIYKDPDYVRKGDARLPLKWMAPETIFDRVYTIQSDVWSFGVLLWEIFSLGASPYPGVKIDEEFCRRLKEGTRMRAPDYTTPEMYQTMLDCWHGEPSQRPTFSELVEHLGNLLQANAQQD

in vitro = in vitro ADME, human; settings: 2 h
Procedure, shortened: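 HLM diluted to 5 mg/mL in 100 mM KPO4, preincubated 10 min at 37 °C with NADPH-regenerating system. Compound (5 µM final) incubated at 37 °C in triplicate, sampled at 0 and 2 h into ice-cold acetonitrile, then LC-MS analysis.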

human FGF-R1 = human FGF-R1 (Homo sapiens, UniProt P11362, C488A/C584S/L457V); test: FGF-R spectrophotometric assay; assay type: biochemical; settings: Table 1; for inhibition at 1 µM: compound concentration 1 µM, read-out: FGF-P* (% inhibition)
Chain of human FGF-R1 (P11362 456-766 L457V/C488A/C584S): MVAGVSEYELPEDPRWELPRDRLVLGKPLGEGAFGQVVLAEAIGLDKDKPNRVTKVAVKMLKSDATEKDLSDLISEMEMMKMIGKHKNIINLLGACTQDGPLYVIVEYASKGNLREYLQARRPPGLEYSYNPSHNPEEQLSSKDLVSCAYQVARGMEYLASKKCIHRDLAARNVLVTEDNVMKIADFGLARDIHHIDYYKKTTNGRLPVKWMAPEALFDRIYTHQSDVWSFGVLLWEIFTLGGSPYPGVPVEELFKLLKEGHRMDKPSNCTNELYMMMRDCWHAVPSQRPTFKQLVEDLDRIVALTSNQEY
Experimental: The spectrophotometric assay was carried out as described above for VEGF-R2, except for the following changes in concentration: FGF-R = 50 nM, ATP = 2 mM, and poly(E4Y1) =15 mM.

[2] = target: T1, unphosphorylated VEGF-R2Δ50; test: biochemical
[3] = system: lung cancer cells (line MV522); test: Cancer cell proliferation (MV522) assay; assay type: cell-based; settings: MV522; Table 1; read-out: MV522 IC50
Procedure, shortened: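 MTT reduction read-out was taken 72 h after addition of test agents, with no prior serum starvation. Cells were plated beforehand at two thousand per well in RPMI1640 containing 10% FBS and 2 mM glutamine and allowed one day to adhere.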

LCK tyrosine kinase = LCK tyrosine kinase (Homo sapiens, UniProt P06239, C224D/P223M); test: LCK spectrophotometric assay; assay type: biochemical; settings: Table 1, compound concentration 1 µM; for inhibition at 1 µM: read-out: Lck-P* (% inhibition)
Chain of LCK tyrosine kinase (P06239 223-509 P223M/C224D): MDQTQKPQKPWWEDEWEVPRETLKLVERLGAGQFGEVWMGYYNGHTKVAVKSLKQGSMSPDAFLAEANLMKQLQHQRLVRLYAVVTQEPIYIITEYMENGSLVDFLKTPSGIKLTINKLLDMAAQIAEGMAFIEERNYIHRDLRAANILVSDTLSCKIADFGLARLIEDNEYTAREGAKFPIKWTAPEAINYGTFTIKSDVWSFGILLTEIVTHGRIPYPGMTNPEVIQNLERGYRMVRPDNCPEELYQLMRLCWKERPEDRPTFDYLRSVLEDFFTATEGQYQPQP
Experimental: The spectrophotometric assay was carried out as described above for VEGF-R2, except for the following changes in concentration: LCK = 60 nM, MgCl2 = 0 mM, poly(E4Y1) = 20 mM.

[4] = target: phosphorylated VEGF-R2Δ50 (Homo sapiens, UniProt P35968, DEL940-989/E990V); test: biochemical; settings: for inhibition at 1 µM: read-out: FLVK-P* (% inhibition); for inhibition at 0.05 µM: read-out: FLVK -P** (% inhibition)
Chain of phosphorylated VEGF-R2Δ50 (P35968 with tags, fused parts or gaps DEL940-989/E990V limits assumed): as the sequence (P35968 with tags, fused parts or gaps DEL940-989/E990V limits assumed) above

human CHK1 (FL-CHK1) = target: T2, human CHK1 (FL-CHK1) (Homo sapiens, UniProt O14757); test: CHK1 coupled spectrophotometric assay; assay type: biochemical; settings: read-out: CHK1* (% inhibition)
T2 construct: C-terminally His-tagged full-length human CHK1 (FL-CHK1) was expressed using the baculovirus/insect cell system; made in house; host or cells: baculovirus/insect cell system
T2 sequence (O14757 1-476): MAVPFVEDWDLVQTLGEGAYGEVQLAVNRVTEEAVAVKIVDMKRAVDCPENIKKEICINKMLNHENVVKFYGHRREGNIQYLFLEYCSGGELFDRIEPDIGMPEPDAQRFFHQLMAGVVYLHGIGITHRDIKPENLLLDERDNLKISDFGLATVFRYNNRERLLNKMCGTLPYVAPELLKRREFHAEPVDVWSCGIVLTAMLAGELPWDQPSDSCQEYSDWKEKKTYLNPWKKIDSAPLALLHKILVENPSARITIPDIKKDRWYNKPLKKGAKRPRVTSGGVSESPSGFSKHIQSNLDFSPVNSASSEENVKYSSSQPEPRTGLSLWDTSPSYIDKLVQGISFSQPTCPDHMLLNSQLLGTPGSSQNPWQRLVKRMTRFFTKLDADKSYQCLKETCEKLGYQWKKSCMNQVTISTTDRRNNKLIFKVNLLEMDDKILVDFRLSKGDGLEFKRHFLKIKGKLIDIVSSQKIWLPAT
Procedure, shortened: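 His-tagged full-length human CHK1 from baculovirus/insect cells, 10 nM, phosphorylating Syntide-2. ADP formation coupled via PK/LDH with PEP to NADH oxidation, followed as absorbance decrease at 340 nm. Ki from initial rates at varying compound concentrations.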

CDK1 = CDK1 (Homo sapiens, UniProt P06493); test: CDK1 assay (Table 3); assay type: biochemical; settings: Table 3; compound concentration 1 µM; NI = no significant inhibition; read-out: CDK1* (% inhibition)
Chain of CDK1 (P06493 whole entry, species assumed): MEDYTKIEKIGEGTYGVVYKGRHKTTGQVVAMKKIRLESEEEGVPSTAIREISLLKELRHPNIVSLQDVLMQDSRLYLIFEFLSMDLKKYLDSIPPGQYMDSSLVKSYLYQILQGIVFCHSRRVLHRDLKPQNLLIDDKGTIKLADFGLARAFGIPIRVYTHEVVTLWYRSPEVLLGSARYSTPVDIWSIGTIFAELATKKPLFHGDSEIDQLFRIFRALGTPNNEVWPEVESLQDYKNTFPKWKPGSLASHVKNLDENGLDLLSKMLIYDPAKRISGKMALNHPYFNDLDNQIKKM
Chain of CDK1 (P14635 whole entry partner, species assumed): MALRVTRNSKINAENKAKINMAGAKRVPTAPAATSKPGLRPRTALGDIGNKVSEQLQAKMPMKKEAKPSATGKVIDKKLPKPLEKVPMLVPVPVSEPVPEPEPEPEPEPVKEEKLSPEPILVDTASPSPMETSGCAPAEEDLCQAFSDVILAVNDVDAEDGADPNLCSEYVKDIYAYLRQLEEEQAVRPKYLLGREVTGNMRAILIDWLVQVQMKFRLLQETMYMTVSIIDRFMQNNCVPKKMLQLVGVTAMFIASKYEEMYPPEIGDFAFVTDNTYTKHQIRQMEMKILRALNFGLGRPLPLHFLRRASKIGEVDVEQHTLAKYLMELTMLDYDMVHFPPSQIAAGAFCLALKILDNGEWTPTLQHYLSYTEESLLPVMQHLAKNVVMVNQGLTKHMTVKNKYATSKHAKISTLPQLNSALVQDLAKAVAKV

CDK4/Cyclin D3 complex = CDK4/Cyclin D3 complex (Homo sapiens, UniProt P11802); test: biochemical; settings: read-out: CDK4 * (% inhibition)
Chain of CDK4/Cyclin D3 complex (P11802 whole entry, the tested form may be a part): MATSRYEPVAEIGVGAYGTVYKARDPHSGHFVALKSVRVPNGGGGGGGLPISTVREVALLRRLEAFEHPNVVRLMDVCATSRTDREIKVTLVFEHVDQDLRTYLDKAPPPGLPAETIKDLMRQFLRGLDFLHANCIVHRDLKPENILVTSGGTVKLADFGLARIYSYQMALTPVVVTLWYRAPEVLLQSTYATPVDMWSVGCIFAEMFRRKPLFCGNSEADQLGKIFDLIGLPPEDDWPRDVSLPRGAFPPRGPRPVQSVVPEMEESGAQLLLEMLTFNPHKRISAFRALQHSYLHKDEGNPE
Chain of CDK4/Cyclin D3 complex (P30281 whole entry partner, the tested form may be a part): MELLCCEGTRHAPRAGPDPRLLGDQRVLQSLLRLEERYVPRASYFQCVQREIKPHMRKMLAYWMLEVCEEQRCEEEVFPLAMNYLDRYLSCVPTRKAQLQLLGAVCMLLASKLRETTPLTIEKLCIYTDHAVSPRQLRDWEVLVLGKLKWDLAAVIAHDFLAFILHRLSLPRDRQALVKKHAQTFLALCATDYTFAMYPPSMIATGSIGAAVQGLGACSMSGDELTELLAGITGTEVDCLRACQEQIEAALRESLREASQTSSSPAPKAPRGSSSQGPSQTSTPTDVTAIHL

CDK2/Cyclin A complex = CDK2/Cyclin A complex (Homo sapiens, UniProt P24941); test: CDK2/Cyclin A assay ([32P]ATP incorporation into Rb fragment); assay type: biochemical; settings: read-out: CDK2 * (% inhibition)
human FAK (FAKcd409) = target: T3, human FAK (FAKcd409) (Homo sapiens, UniProt Q05397, P410T); test: FAK fluorescence polarization assay; assay type: biochemical; settings: read-out: % Inhibition @ 1 µM FAK
T3 construct: comprises residues methionine 409 to glutamate 689; made in house; host or cells: baculovirus vector expression system (insect cells)
T3 sequence (Q05397 409-689 P410T): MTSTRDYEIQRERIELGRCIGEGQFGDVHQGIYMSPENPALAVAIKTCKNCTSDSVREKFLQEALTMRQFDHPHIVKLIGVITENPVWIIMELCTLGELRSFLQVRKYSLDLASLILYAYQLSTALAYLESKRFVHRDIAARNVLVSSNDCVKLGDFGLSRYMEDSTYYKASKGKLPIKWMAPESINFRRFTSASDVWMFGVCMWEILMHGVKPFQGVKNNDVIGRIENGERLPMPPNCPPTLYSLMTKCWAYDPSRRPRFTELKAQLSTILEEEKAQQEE
Experimental: FAK Construct for Assay. The catalytic domain of human FAK (FAKcd409) was expressed using the baculovirus vector expression system. […] The protein was purified using classical chromatography techniques.
FAK HTS utilized the fluorescence polarization assay provided by LJL Biosystems. The kinase reaction contained: 100mM Hepes pH 7.5, 10mM MgCl2, 1mM DTT, 1mM ATP, and 1mg/ml poly Glu-Tyr (4: 1). The reaction is initiated by the addition of 5nM FAKcd409. The reaction is terminated by the addition of EDTA followed by addition of fluor-labelled peptide and anti-phosphotyrosine antibody, both provided by LJL Biosystems. Inhibition results are read on a Analyst (LJL) detector.

in vivo = settings: mouse, plasma, pH 2.3
[5] = system: human umbilical vein endothelial cells (HUVEC); test: HUVEC proliferation assay (VEGF-stimulated, MTT); assay type: cell-based; settings: Homo sapiens, HUVEC, Table 1
[6] = system: VEGF dependent retinal vascular development; test: In vivo assay of retinal vascular development in neonatal rats; set-up: species or system rat; settings: vehicle PEG/water 70:30
Procedure, shortened: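 Neonatal rats given compound by intravitreal injection, vehicle usually 50% PEG 400/50% 300 mM sucrose, with vehicle in contralateral eye. Retinas removed six days later, ADPase-stained and flat-mounted; stained vessel area quantified by imaging and expressed as percent regression versus vehicle eye.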

[7] = system: VEGF dependent retinal neovascularization; test: Neonatal rat model of retinopathy of prematurity; assay type: in vivo; settings: Model ROP, intravitreal, vehicle PEG/water 70:30
[8] = + albumin, read-out: HUVEC + albumin IC50
[9] = human liver microsomes, 5 µM test compound, 37 °C

FLVK ** (% inhibition) ([1]; listed as 35(l), 0.05 µM): 100% and 99% | % remain (HLM, 2 h) (in vitro; human, microsomes, 5 µM): 5%
Compound: 6-[2-((4-Aminobenzyl)methylcarbamoyl)phenylsulfanyl]-3-E-[2-(pyridin-2-yl)ethenyl]-1H-indazole [Reference Example 35(I)]

inhibition at 1 µM (human FGF-R1): 88% | Ki [2]: 0.72 nM | IC50 [3]: 3800 nM | inhibition at 1 µM (LCK tyrosine kinase): 36% | Ki [4]: 4.7 nM
Compound: CC(=O)NC(C(=O)Nc1cccc(C(=O)c2ccc3c(/C=C/c4ccccc4)n[nH]c3c2)c1)c1ccccc1 (stereo not shown) [19(i), 6-[3-(2-acetamido-2-phenylacetamido)benzoyl]-3-E-styryl-1H-indazole]

Compound: CCc1cc(O)ccc1-c1ccc2c(-c3nc4ccccc4[nH]3)n[nH]c2c1 [24(e), 3-1H-Benzoimidazol-2-yl-6-(2-ethyl-4-hydroxyphenyl)-1H-indazole]
inhibition at 1 µM (human CHK1 (FL-CHK1); Table 2, compound concentration 1 µM, NI = no significant inhibition): 75% | inhibition at 1 µM [4]: 52%

Compound: Oc1ccc(-c2ccc3c(-c4nc5ccccc5[nH]4)n[nH]c3c2)c(O)c1 [24(f), 3-1H-Benzoimidazol-2-yl-6-(2,4-dihydroxyphenyl)-1H-indazole]
inhibition at 1 µM (human CHK1 (FL-CHK1)): 97% | inhibition at 1 µM [4]: 89%

FLVK ** (% inhibition) [1]: 44%
Compound: NNC(=O)c1ccccc1Sc1ccc2c(C=Cc3ccccn3)n[nH]c2c1 [35(il)]

Ki (human FGF-R1; read-out: FGF-P* (Ki)): 11 nM | FLVK ** (% inhibition) [1]: 57% | Lck-P* (% inhibition) (LCK tyrosine kinase): 18% | % remain (HLM, 2 h) (in vitro; human, microsomes, 5 µM): 85%
Compound: CCn1nc(C)cc1C(=O)Nc1cc(C(=O)c2ccc3c(/C=C/c4ccccn4)n[nH]c3c2)c(C)cc1C [41(11)]

Compound: O=C(Nc1cccc(C(=O)c2ccc3c(/C=N/n4cnnc4)n[nH]c3c2)c1)c1ccccc1 [Example 42(e), 6-(3-benzamidobenzoyl)-3-E-[N-(4H-1,2,4-triazol-4-yl)iminomethyl]-1H-indazole]
Ki ([1]; read-out: FLVK ** (Ki)): 1.1 nM

Compound: Oc1cccc(-c2ccc3c(/C=C/c4ccccc4)n[nH]c3c2)c1 [Reference Example 28(a), 6-(3-hydrophenyl)-3-E-styryl-1H-indazole]
inhibition at 1 µM (CDK1): 77% | inhibition at 1 µM (CDK4/Cyclin D3 complex): 79% | inhibition at 1 µM (CDK2/Cyclin A complex): 75% | inhibition at 1 µM ([2]; read-out: FLVK* (% inhibition)): 84%

Compound: Oc1ccc(-c2ccc3c(/C=C/c4ccccc4)n[nH]c3c2)cc1O [Reference Example 28(d), 6-(3,4-dihydroxyphenyl)-3-E-styryl-1H-indazole]
inhibition at 1 µM (CDK1): 93% | inhibition at 1 µM (CDK4/Cyclin D3 complex): 87% | inhibition at 1 µM (CDK2/Cyclin A complex): 66%

Compound: CNC(=O)c1ccccc1Sc1ccc2c(/C=C/c3ccccn3)n[nH]c2c1 [Reference Example 33(a), 6-[2-(methylcarbamoyl)phenylsulfanyl]-3-E[2-(pyridin-2-yl)ethenyl]indazole]
inhibition at 1 µM (CDK4/Cyclin D3 complex): 7% | inhibition at 1 µM (human FAK (FAKcd409)): 12% | % remain (HLM, 2 h) (in vitro; human, microsomes, 5 µM): 29% | inhibition at 0.05 µM [4]: 42% | AUC (in vivo; ip, 25 mg/kg): 13800 ng·h/mL | AUC (in vivo; po, 50 mg/kg): 19100 ng·h/mL

Compound: O=C(NC1CC1)c1ccccc1Sc1ccc2c(/C=C/c3ccccn3)n[nH]c2c1 [Reference Example 33(e), 6-[2-(cyclopropylcarbamoyl)phenylsulfanyl]-3-E-[2-(pyridin-2-yl)ethenyl]-1H--1H-indazole]
inhibition at 1 µM (human FGF-R1): 68% | IC50 [5, 8]: 5 nM | IC50 ([5]; read-out: HUVEC IC50): 0.46 nM | % Inhibition ([6]; Model P8, intravitreal, 5 mg/ml): 22% | inhibition at 1 µM (LCK tyrosine kinase): 2% | % remain (HLM, 2 h) (in vitro; [9]): 54% | inhibition at 0.05 µM [4]: 70%

Compound: O=C(Nc1ccc(N2CCNCC2)c(C(F)(F)F)c1)c1ccccc1Sc1ccc2c(/C=C/c3ccccc3)n[nH]c2c1 [Reference Example 38(b), 6-[2-((4-piperizin-1-yl-3-trifluoromethylphenyl)carbamoyl)phenylsulfanyl]-3-E-(2-styryl)-1H-indazole]
IC50 ([5]; read-out: HUVEC IC50): 79 nM | inhibition at 0.05 µM [4]: 72%

Compound: C/C=C/C(=O)Nc1cccc(C(=O)c2ccc3c(/C=C/c4ccccn4)n[nH]c3c2)c1 [Reference Example 41(c), 6-(3-crotonylamidobenzoyl)-3-E-[2-(pyridio-2-yl)ethenyl]-1H-indazole]
inhibition at 1 µM (human FGF-R1): 77% | IC50 [5, 8]: 5.3 nM | IC50 ([5]; read-out: HUVEC IC50): 0.4 nM | inhibition at 1 µM (LCK tyrosine kinase): 36% | % remain (HLM, 2 h) (in vitro; [9]): 68% | inhibition at 0.05 µM [4]: 83%

Compound: O=C(Cc1cc(F)cc(F)c1)Nc1cccc(C(=O)c2ccc3c(/C=C/c4ccccn4)n[nH]c3c2)c1 [Reference Example 41(f), 6-[3-(3,5-difluorophenylacetamido)benzoyl]-3-E-[2-(pyridin-2-yl)ethenyl]-1H-indazole]
inhibition at 1 µM (human FGF-R1): 92% | inhibition at 1 µM (LCK tyrosine kinase): 65% | % remain (HLM, 2 h) (in vitro; [9]): 59% | inhibition at 0.05 µM [4]: 84%

Compound: O=C(Nc1cccc(C(=O)c2ccc3c(/C=C/c4ccccn4)n[nH]c3c2)c1)c1ccccc1 [Reference Example 42(a), 6-(3-Benzamidobenzoyl)-3-E-[2-(pyridin-2-yl)ethenyl]-1H-indazole]
IC50 [5, 8]: […] | IC50 [3]: 5500 nM | % Inhibition ([6]; Model P6-P10, IP*): 61% | % Inhibition ([6]; Model P9, intravitreal, 10 mg/ml): 55% | % remain (HLM, 2 h) (in vitro; [9]): 92% | inhibition at 0.05 µM [4]: 79% | % Inhibition ([7]; 1 mg/ml): 1% | Initial Evaluation ([7]; 1 mg/ml): + (one plus being detectable regression judged to be approximately 25 percent or less) | % Inhibition ([7]; 10 mg/ml): 23%
